From patent US20240166594A1, “PHOTOCAGED CITRULLINE ANALOGS AND METHODS FOR SITE-SPECIFIC INCORPORATION OF CITRULLINE INTO PROTEINS” (University of Massachusetts, priority 2021, published 2024)
Like-named read-outs stand apart in the source and are kept apart here.

How the values were obtained:
HEK293T cells = assay: Cytotoxicity of SM60 in HEK293T cells (CellTiter-Blue); type: cell-based; conditions: Homo sapiens, HEK-293T, 48 h, read-out: EC50 for inhibition of cell proliferation
Procedure: HEK293T cells were seeded (2×10^4 cells/well) on a 96-well plate and grown in DMEM (supplemented with 10% heat-inactivated fetal bovine serum, 100 units/mL penicillin, 100 μg/mL streptomycin) for 48 h. Cells were then treated with DMSO (for control) or various concentrations of SM60. In a separate experiment, cells were briefly (3 min) irradiated with 365 nm UV following SM60 treatment and were allowed to grow at 37° C. for 48 h. Cell viability was measured using CellTiter-Blue® (Promega) by following the manufacturer's protocol. Equation 1,
Y=Bottom+(Top−Bottom)/[1+10^((log EC50−X)*Hillslope)] (1),
was used to fit a ten-point dose-response curve to determine the EC50 values for inhibition of cell-proliferation using GraphPad Prism 8.0. Top and Bottom are plateaus of the dose-response curve, X is the log of SM60-concentration, Hillslope is the slope factor or Hill slope. All the experiments were performed in triplicate.

[1] = Photodecaging to citrulline with 365 nm UV (HPLC, LC-MS, 1H NMR); type: physicochemical; conditions: up to 5 min, PBS pH 7.4 with 2 mM DTT (SM70: 1:1 acetonitrile/PBS)
Description: FIG. 1. SM60, a photocaged-citrulline and its conversion to citrulline with 365 nm UV light. a, Conversion of peptidyl-arginine to peptidyl-citrulline by the PADs. b, Chemical structures of SM60 and SM70. c, Schematic representation of the incorporation of SM60 into proteins by an engineered LeuRS-tRNA^Leu pair and subsequent conversion to citrulline. d, Decaging of SM60 to citrulline with 365 nm UV irradiation. Left and right panels indicate the HPLC and ion chromatograms, showing the disappearance of SM60 and the formation of citrulline (Cit), respectively, with increasing UV exposure. Quantitative analyses of decaging and Cit formation are shown in the insets. Assay mixture: 1 mM SM60, 2 mM DTT, Phosphate-buffered saline pH 7.4.
FIG. 8. ^1H NMR spectrum of SM60 in D2O after UV (365 nm) exposure for 1, 2, 3, 4 and 5 min. […] Furthermore, an upfield shift was also observed for the ‘b’ protons upon the formation of citrulline. The multiplets at 3.6-3.7 and 2.6-2.7 ppm are due to DTT used in the assay. Assay condition: 1 mM SM60, 2 mM DTT, D2O.
FIG. 9. (A) Photodecaging of Fmoc-SM60 to produce Fmoc-Cit. (B) HPLC chromatograms indicating the disappearance of Fmoc-SM60 and the production of Fmoc-Cit with increasing UV exposure. […] Assay mixture: 0.5 mM Fmoc-SM60, 2 mM DTT, Phosphate-buffered saline pH 7.4. ESI-Mass spectra of Fmoc-SM60 (C) and Fmoc-Cit (D).
FIG. 10. […]

[2] = tested on: EcLeuRS-tRNACUA^EcLeu pair; assay: EGFP-39-TAG reporter expression assay in HEK293T cells; type: cell-based; conditions: EcLeuRS mutant (M40I, Y499I, Y527A, H529G, T252A)
Description: The first two pairs are restricted to structural analogs of phenylalanine and tryptophan, respectively, precluding their use to genetically encode SM60. However, both the archaeal pyrrolysyl (PylRS/tRNA^Pyl) and E. coli leucyl (EcLeuRS-tRNACUA^EcLeu) pairs have been engineered to charge UAAs structurally similar to SM60. […] This property has provided a facile route to rapidly expand the repertoire of genetically encoded UAAs without having to engineer new aaRS mutants for each distinct substrate. To explore if such a polyspecific aaRS can accept SM60 as a substrate, several existing PylRS and EcLeuRS mutants were screened using an EGFP-39-TAG expression assay in HEK293T cells in the presence of their cognate amber suppressor tRNA. […] Furthermore, UV irradiation of cells expressing EGFP-39-SM60 before lysis followed by protein purification and MS analysis afforded a single protein mass consistent with the complete deprotection and incorporation of citrulline at position 39 of EGFP (FIG. 2d).
HEK293T cells were maintained at 37° C. in a humidified incubator supplemented with 5% CO2. […]
EGFP fluorescence was analyzed 48 h after transfection. […] Lysate were clarified by centrifugation at 16,000×g for 10 min and 100 μL of supernatant was transferred to a clear-bottom 96-well plate for fluorescence measurement following previously described protocol. […]

N[C@@H](CCCNC(=O)NCc1ccccc1[N+](=O)[O-])C(=O)O [SM60]
EC50 (HEK293T cells; SM60 alone): > 10 mM | EC50 (HEK293T cells; combination of SM60 and 365 nm UV (3 min)): 4.5 ± 0.2 mM | photodecaging / conversion to citrulline form [1]: quantitatively converted to Cit | EGFP-39-TAG reporter expression [2]: robust expression of the fluorescence reporter only when SM60 was supplemented in the medium
